Experimental data reported in US10292979B2, “Methods of treating cancer patients with farnesyltransferase inhibitors” (Kura Oncology, Inc., priority 2015, dated 2019).
“And” between values parts separate entries of the source, which are not always exact repeats. Equal values may be shown once.

Legend:
[1] = system: AML patients; test: Clinical outcome of AML patients treated with tipifarnib versus NK cell biomarker expression in bone marrow (GSE8970/CTEP-20, GSE5122); format: in vivo, human; details: for Exp(b), Cox proportional hazards regression: AML patients treated with tipifarnib
Experimental: The current study used microarray data generated from global gene expression assay of bone marrow samples collected in two clinical studies investigating the efficacy and safety of FTI tipifarnib. One clinical study was conducted in adult patients aged 65 years or older with previously untreated AML, and the other conducted in relapsed and refractory AML. The clinical results for these studies were previously published (Lancet et al., Blood 109:1387-1394 (2007); Harousseau et al., Blood 9:9 (2007); Raponi et al., Clin. Cancer Res. 13:2254-2260 (2007)), and the gene profiling data were publically available in NCBI's Gene Expression Omnibus (GEO, http://www.ncbi.nlm.nih.gov/geo) and are assessable through GEO Series accession numbers GSE8970 and GSE5122.
As described in Raponi et al., Blood 111:2589-96 (2008), BM samples were collected from consenting patients before treatment with tipifarnib, and mononuclear cells were processed on site. Total RNA was extracted from cell samples, quality controlled, and further processed for microarray analysis. DNA was isolated from the same sample. Samples were assayed for global gene expression, and/or quantitative polymerase chain reaction (QPCR) of specific genes).
Briefly, CR was defined as BM showing less than 5% myeloblasts with normal maturation of all cell lines, absolute neutrophil count (ANC) of at least 10^9/L (1000/μL), and a platelet count of 100×10^9/L (100 000/μL). PR was defined as the presence of recovery of ANC and platelets to the above stated levels, but with 5% to 19% BM blasts, and a greater than 50% decrease in BM blast percentage from baseline. HI was defined as the same as PR, except with recovery of ANC to 0.5 to 1×10^9/L (500 to 1000/μL) and platelet count to 20 to 100×10^9/L (20 000 to 100 000/μL). Progressive disease (PD) was defined as any of the following: more than 50% increase in BM blast percentage from baseline (more than 5% blasts if baseline is less than 5%, more than 10% blasts if baseline is 5% to 10%, and more than 20% blasts if baseline 10% to 20%); greater than 50% increase in circulating blasts; new appearance of circulating blasts on at least 2 consecutive occasions; or development of extramedullary leukemia. Stable disease (SD) was defined as any response not meeting CR, PR, HI, or PD criteria.
Kaplan Meier curves were used to investigate the relationship between biomarker values and clinical benefit. The identification of multiple NK cell related genes, the long duration of response observed in some tipifarnib patients, and the role of RAS mediated signal transduction in NK cells support that the responsiveness of AML patients to tipifarnib treatment could be resulted from bone marrow infiltrates of immune cells.

[2] = system: previously untreated elderly or unfit AML patients; test: CTEP-20 phase 2 trial of tipifarnib, outcome by N-RAS gene status; format: in vivo, human; details: for PFS: FIG. 8; for ORR (response rate): FIG. 9
Experimental: CTEP-20 was a phase 2 clinical trial of tipifarnib in previously untreated elderly or unfit AML patients. (Raponi et al., Blood 111:2589-96 (2008)).
N-RAS gene status was determined for 32 patients. […] Accordingly, AML patients can be selected based on mutation status of RAS gene for tipifarnib treatment in order to increase the responsiveness to the treatment.

[3] = system: salivary gland cancers with HRAS mutations; test: Phase 2 trial of tipifarnib in advanced tumors with HRAS mutation, cohort 2; format: in vivo, human
Excerpt: (§1) A Phase 2 clinical trial was initiated to use tipifarnib in the treatment of advanced tumors with a known HRAS mutation. The clinical trial design includes enrolling 2 cohorts of 18 patients each. Cohort 1 enrolls subjects with malignant thyroid tumors with HRAS mutations, independent of thyroid histology. Cohort 2 enrolls any subject with a non-hematological HRAS mutant tumor other than thyroid cancer who meets eligibility criteria.
(§2) This clinical trial was designed to include two stages, with the first stage including 11 evaluable patients, and the second stage including 7 additional evaluable patients, and a cohort would not proceed to the second stage if one or no objective response is observed in a cohort in the first stage. The clinical trial is considered positive if at least 4 responses are observed in a cohort out of 18 subjects. The primary endpoint is objective response rate, and tumor response assessments are conducted according to the Response Evaluation Criteria in Solid Tumors version 1.1 criteria (confirmation of response is required).
(§3) According to the protocol, tipifarnib is administered to enrolled patients at a starting dose of 900 mg, orally with food, twice a day (b.i.d.) for 7 days in alternating weeks (Days 1-7 and 15-21) in 28 day cycles. At the discretion of the investigator, the dose of tipifarnib can be increased to 1200 mg b.i.d. if the subject has not experienced dose limiting toxicities at the 900 mg dose level. Subjects who develop serious adverse events (SAE) or ≥grade 2 treatment-emergent adverse events (TEAE) that are deemed related to tipifarnib and lasting ≥14 days will not undergo dose escalation. Stepwise 300 mg dose reductions to control treatment-related, treatment-emergent toxicities are also allowed.
(§4) Four (4) evaluable patients were enrolled in the first cohort (patients with malignant thyroid tumors with HRAS mutations) and eleven (11) evaluable patients were enrolled in the second cohort (patients with non-hematologic malignancies other than thyroid cancer with HRAS mutations). In the second cohort, three (3) of those patients have relapsed/refractory head-and-neck carcinoma and two (2) of those three (3) experienced confirmed objective partial responses (PR) and a third patient experienced disease stabilization beyond six months (>8 months). All three head and neck carcinoma patients are HPV negative. All head and neck patients remain on study. […] In addition, five (5) patients enrolled patients have salivary gland cancers with HRAS mutations, and three (3) of them experienced disease stabilization beyond six months (>7, 9 and >11 months). Cohort 2 was proceeded into the second stage of the trial for enrolment of additional seven patients per the trial protocol.

[4] = system: relapsed/refractory head-and-neck carcinoma with HRAS mutations; test: as above; format: in vivo, human
Excerpt: as §1, §2, §3, §4

[5] = system: tumor in nude mice; details: cited from earlier work
[6] = 34 previously untreated poor-risk and elderly AML patients
[7] = AML patients with 2DS2/2DL2 ratio at the highest (4th) quartile
[8] = AML patients with wild type N-RAS

## Cn1cncc1[C@@](N)(c1ccc(Cl)cc1)c1ccc2c(c1)c(-c1cccc(Cl)c1)cc(=O)n2C [Tipifarnib, (B)-6-[amino(4-chlorophenyl)(1-methyl-1H-imidazol-5-yl)methyl]-4-(3-ch-lorophenyl)-1-methyl-2(1H)-quinolinone]
[1]; [6]
  KIR2DS2 High 4th Quartile (Upper) Median Survival: 564 days
  KIR2DS2 Low 1st-3rd Quartile Median Survival: 153 days
[1]; 34 previously untreated poor-risk and elderly AML patients, all
  Median Overall Survival: 233 days
[1]; [7]
  median OS: 750 days
  median PFS: 431 days
[1]; FIG. 2A: PFS versus KIR2DS2/KIR2DL2 expression ratio
  Exp(b), Cox proportional hazards regression: 0.0006
[1]; FIG. 2B: OS versus 2DS2/2DL2 ratio
  Exp(b), Cox proportional hazards regression: 0.0048
[1]; FIG. 4A: PFS versus 2DS5/2DL5A ratio
  Exp(b), Cox proportional hazards regression: 0.0294
[1]; FIG. 6A: GZMM/OS
  Exp(b), Cox proportional hazards regression: 0.5688
[1]; FIG. 6A: GZMM/PFS
  Exp(b), Cox proportional hazards regression: 0.5568
[1]; GSE8970 (CTEP-20), Front Line Elderly AML, 2DS2/2DL2 ratio 1st-4th quintile
  1-4th Q Median (survival): 179 days
[1]; GSE8970 (CTEP-20), Front Line Elderly AML, 2DS2/2DL2 ratio 5th Q versus rest
  HR: 0.21
[1]; GSE8970 (CTEP-20), Front Line Elderly AML, 2DS2/2DL2 ratio highest quintile
  5th Q Median (survival): 754 days
[1]; GSE8970 (CTEP-20), Front Line Elderly AML, all patients
  all Median (survival): 233 days
[1]; KIR2DS2 high versus low, 34 AML patients
  Hazards Ratio: 0.303
[2]; AML patients with mutant N-RAS
  PFS: 65 days
  ORR (response rate): 27%
[2]; [8]
  PFS: 157 days
  ORR (response rate): 43%
[3]; of 5 patients with salivary gland cancers with HRAS mutations
  number of patients with disease stabilization beyond six months: 3
[3]; the three individual salivary gland cancer patients with stabilization
  duration of disease stabilization: > 7 months and 9 months and > 11 months
[4]; of 3 HPV negative relapsed/refractory head-and-neck carcinoma patients, 900 mg b.i.d. days 1-7 and 15-21 of 28 day cycles
  number of patients with confirmed objective partial responses (PR): 2
[4]; third head-and-neck carcinoma patient
  duration of disease stabilization: > 8 months

## CC[C@H](C)[C@@H](CO[C@@H](Cc1ccccc1)C(=O)N[C@@H](CCS(C)(=O)=O)C(=O)O)NC[C@@H](N)CS [L-739749, 2(S)-[2(S)-[2(R)-amino-3-mercapto]propylamino-3(S)-methyl]-pentyloxy-3-phenylpropionyl-methionine sulfone]
[5]
  antitumor activity: potent antitumor activity
  toxicity: without system toxicity
